Reference: article PMC8557888, “Intracellular Accumulation of Novel and Clinically Used TB Drugs Potentiates Intracellular Synergy” (Microbiology Spectrum, 2021)
Several values for one entry are separate records, joined by “and”; a condition that tells them apart may be missing. Equal values may be shown once. Read-outs that look alike come from different tables or passages of the source.

Assays:
THP-1 cells [1] = test: Intracellular accumulation in uninfected THP-1 cells (LC-MS/MS); settings: 5 μg/ml of each compound, 48 h
THP-1 cells [2] = settings: human, 5 μg/ml
in vitro = settings: human
M. smegmatis = format: cell-based, Mycobacterium smegmatis
M. tuberculosis H37Rv [3] = test: Intracellular efficacy (CFU plating) in M. tuberculosis-infected THP-1 cells; format: cell-based, Mycobacterium tuberculosis; settings: M. tuberculosis H37Rv-infected THP-1 cells, 20× MIC, 96-h assay; for decrease in bacterial count from starting count: given as size of decrease; for change in bacterial count compared to starting bacterial count: signed value
M. tuberculosis = test: Two-dimensional checkerboard synergy assay; format: cell-based, Mycobacterium tuberculosis; settings: PhX1/WHN296 combination
[4] = male, C57BL/6, mouse, in vivo, po, 10 mg/kg
[5] = test system: M. smegmatis-infected THP-1 cells
M. tuberculosis H37Rv [6] = settings: cited from earlier work
[7] = THP-1 cell viability during accumulation experiment (trypan blue); settings: human
[8] = PhX1 concentrations in murine plasma, epithelial lining fluid and alveolar macrophages (BAL procedure, LC-MS/MS); settings: mice; for Kp / AUC / Cmax: male, C57BL/6, mouse, in vivo, 10 mg/kg; for AUC: 24 h
[9] = test system: M. tuberculosis-infected THP-1 cells; settings: 20× MIC
Method: An intracellular accumulation ratio, defined as the intracellular compound concentration divided by the extracellular concentration, was used in this study to allow comparison between compounds (Fig. 5B).
The intracellular accumulation of the combination of PhX1 and WHN296 in the M. tuberculosis-infected THP-1 cell model was evaluated using quantitative LC-MS/MS at time points of 24, 48, 72, and 96 h (n = 3 for each time point). In this experiment, intracellular drug concentrations are reported in ng/ml to allow comparisons to be made with the minimum compound levels required to achieve synergy.
THP-1 cells were grown in RPMI medium containing 10% FCS at 37°C in 5% CO2. Cells were seeded and differentiated according to the above protocol for 24 h using PMA. M. tuberculosis (H37RvMa) cells were grown to mid-log phase in 7H9 medium. THP-1 cells were infected at an MOI of 5. Following 3 h of infection, wells were washed with RPMI medium to remove extracellular bacteria and dead cells. RPMI medium containing a predetermined concentration of compound was added to each well in triplicate. The solution was allowed to equilibrate for 30 min. In addition, three wells were left without drug treatment (following M. tuberculosis infection) and served as untreated controls, while an additional three wells of THP-1 cells were left uninfected and were used as uninfected controls. Thereafter, at each time point, cells were washed with RPMI medium. This was followed by the addition of EDTA (5 mM), after which 5 min was allowed for the cells to detach. Trypan blue-stained cells were counted using the automated cell counter. The remaining supernatant (150 μl) was added directly to an Eppendorf tube containing chloroform/methanol (3:1, vol/vol) and 1 μg/ml of compound-specific internal standard (deuterated internal standard for known anti-TB compounds and carbamazepine for novel compounds). […] Samples were processed using quantitative LC-MS/MS assays. […] These were then used to construct calibration curves, which were subsequently used to quantitate the amount of analyte in each respective sample.

[10] = cited from earlier work
[11] = cited from earlier work; remark: listed apart in the source

## O=C(NN=C(c1ccccn1)c1ccccn1)c1ccncc1 [DPINH]
THP-1 cells [1]
  Equilibrium level reached (intracellular concentration): 1,280 ± 113.1 ng/ml

## C[C@H]1COc2c(N3CCN(C)CC3)c(F)cc3c(=O)c(C(=O)O)cn1c23 [Levofloxacin, levofloxacin]
THP-1 cells [2]; 48 h
  Equilibrium level reached (intracellular concentration): 860 ± 56.5 ng/mL
In vitro
  viability at 48 h, 5 μg/ml: 95 ± 4.2%

## CCN(CC)c1ccc2nc3c4ccccc4/c(=N\c4ccccc4)cc-3oc2c1 [PhX1]
M. smegmatis
  change in M. smegmatis-associated green fluorescence: no significant change
M. tuberculosis H37Rv [3]
  decrease in bacterial count from starting count: 0.8 log10CFU/ml
  change in bacterial count compared to starting bacterial count: −0.8 log10CFU/ml
M. tuberculosis
  minimum value required to produce synergy (2D-synergy level): 153.1 ng/mL
[4]
  time plasma concentration above M. tuberculosis MIC90: approximately 6 h
[5]
  intracellular accumulation compared among phenoxazines: significantly higher than those of the majority of the other phenoxazines
[5]; human
  time to steady state of accumulation: 2 h
M. tuberculosis H37Rv [6]; M. tuberculosis H37Rv in vitro
  MIC90: 0.19 µM and 0.194 µM
M. tuberculosis H37Rv [6]; PhX1 vs PhX6
  increase in efficacy against in vitro M. tuberculosis over PhX6: 2 fold
M. tuberculosis H37Rv [6]; line printed in Fig 2
  MIC90: 0.089 µg/mL
THP-1 cells [1]
  Equilibrium level reached (intracellular concentration): 4,750 ± 127.2 ng/ml
[7]
  viability at 48 h, 5 μg/ml: 92 ± 5.8%
[8]; ELFAUC/plasmaAUC
  Kp: 1.7
[8]; po, AUC in epithelial lining fluid cells (alveolar macrophages), 10 mg/kg oral, ELF cells
  AUC: 5020 ng·h/mL
[8]; po, AUC in epithelial lining fluid, 10 mg/kg oral, ELF
  AUC: 2090 ng·h/mL
[8]; po, AUC in plasma, 10 mg/kg oral, plasma
  AUC: 1170 ng·h/mL
[8]; po, Cmax in epithelial lining fluid cells (alveolar macrophages), 10 mg/kg oral, ELF cells
  Cmax: 895 ± 23 ng/mL
[8]; po, Cmax in epithelial lining fluid, 10 mg/kg oral, ELF
  Cmax: 452 ± 22 ng/mL
[8]; po, Cmax in plasma, 10 mg/kg oral, plasma
  Cmax: 200 ± 75 ng/mL
[8]; po, ELF AUC relative to plasma, 10 mg/kg oral
  Kp: ~2
[8]; po, ELF cell AUC relative to plasma, 10 mg/kg oral
  Kp: ~4
[8]; 10 mg/kg oral
  ELF cell AUC relative to epithelial lining fluid: 2 fold
[8]; 10 mg/kg oral, ELF
  time above MIC90 in epithelial lining fluid: 8 h
[8]; single-point values such as Cmax
  log ratio of epithelial lining fluid to plasma concentration: 0.65

## CCN(CC)c1ccc2nc3c4ccccc4c(=Nc4ccccn4)cc-3oc2c1 [PhX6]
[5]
  intracellular accumulation compared among phenoxazines: only compound accumulating to higher levels

## CCCCCCCCCCOc1cc2c(=O)c(C(=O)NCCOCCO)cn(CC)c2cc1OCC [RMB041]
M. tuberculosis H37Rv [3]
  decrease in bacterial count from starting count: 0.1 log10CFU/ml
THP-1 cells [2]; 48 h
  Equilibrium level reached (intracellular concentration): 953.5 ± 28.2 ng/mL
[9]
  intracellular accumulation ratio (intracellular/extracellular concentration): 0.25
M. tuberculosis H37Rv [6]; M. tuberculosis H37Rv in vitro
  MIC90: 1.61 µM
In vitro
  viability at 48 h, 5 μg/ml: 97 ± 2.5%

## CC(C)=CCC/C(C)=C/CN1CCN([C@@H]2O[C@@H]3O[C@@]4(C)CC[C@H]5[C@H](C)CC[C@@H]([C@H]2C)[C@@]35OO4)CC1 [WHN296]
THP-1 cells [2]; 48 h
  Equilibrium level reached (intracellular concentration): 613.5 ± 19.2 ng/mL
M. tuberculosis H37Rv [6]; M. tuberculosis H37Rv in vitro
  MIC90: 18 µM
In vitro
  viability at 48 h, 5 μg/ml: 98 ± 1.2%

## COc1nc2ccc(Br)cc2cc1[C@@H](c1ccccc1)[C@@](O)(CCN(C)C)c1cccc2ccccc12 [bedaquiline]
M. tuberculosis H37Rv [3]
  decrease in bacterial count from starting count: 1.5 log10CFU/ml
  change in bacterial count compared to starting bacterial count: −1.5 log10CFU/ml
THP-1 cells [2]
  time to reach equilibrium level / steady state: ≤ 30 min
THP-1 cells [2]; 48 h
  Equilibrium level reached (intracellular concentration): 4,410 ± 190.9 ng/ml
  equilibrium level (intracellular): greater than 4 μg/ml
[9]
  intracellular accumulation ratio (intracellular/extracellular concentration): 5.5
In vitro
  viability at 48 h, 5 μg/ml: 93 ± 4.9%

## CCc1cc(C(N)=S)ccn1 [ethionamide]
[10]; in vivo
  log ratio ELF/plasma: 2.8

## NNC(=O)c1ccncc1 [isoniazid]
[10]; in vivo
  log ratio ELF/plasma: 1

## CC(=O)NC[C@H]1CN(c2ccc(N3CCOCC3)c(F)c2)C(=O)O1 [linezolid]
THP-1 cells [2]
  time to reach equilibrium level / steady state: ≤ 15 min
THP-1 cells [2]; 48 h
  Equilibrium level reached (intracellular concentration): 770 ± 14.1 ng/mL
In vitro
  viability at 48 h, 5 μg/ml: 92 ± 3.1%
[10]
  log ratio ELF/plasma: 0.7

## COc1c(N2C[C@@H]3CCCN[C@@H]3C2)c(F)cc2c(=O)c(C(=O)O)cn(C3CC3)c12 [moxifloxacin]
M. tuberculosis H37Rv [3]
  decrease in bacterial count from starting count: approximately 0.5 log10CFU/ml
  change in bacterial count compared to starting bacterial count: −0.5 log10CFU/ml
THP-1 cells [2]; 48 h
  Equilibrium level reached (intracellular concentration): 3,374 ± 48.7 ng/ml
[9]
  intracellular accumulation ratio (intracellular/extracellular concentration): 5.4
In vitro
  viability at 48 h, 5 μg/ml: 87 ± 2.7%
[10]
  log ratio ELF/plasma: 1.5
[11]; human, in vivo
  Cmax in epithelial lining fluid: approximately 10 μg/ml
  plasma Cmax: approximately 4 μg/ml
[11]; once-off 400 mg oral dose, healthy volunteers
  concentration in plasma at the 24-h time point: 5000 ng/mL

## NC(=O)c1cnccn1 [pyrazinamide]
[10]; in vivo
  log ratio ELF/plasma: 3.2

## CO[C@H]1/C=C/O[C@@]2(C)Oc3c(C)c(O)c4c(O)c(c(/C=N/N5CCN(C)CC5)c(O)c4c3C2=O)NC(=O)/C(C)=C\C=C\[C@H](C)[C@H](O)[C@@H](C)[C@@H](O)[C@@H](C)[C@H](OC(C)=O)[C@@H]1C [rifampin]
M. tuberculosis H37Rv [3]
  decrease in bacterial count from starting count: approximately 1.5 log10CFU/ml
  change in bacterial count compared to starting bacterial count: −1.5 log10CFU/ml
THP-1 cells [2]; 48 h
  Equilibrium level reached (intracellular concentration): 3,050 ± 62.9 ng/ml
In vitro
  viability at 48 h, 5 μg/ml: 89 ± 2.4%
[10]; in vivo
  log ratio ELF/plasma: 0.7
[11]; human, in vivo
  maximum concentration in epithelial lining fluid: approximately 2 μg/ml
